Patent publication US20170080026A1, “METHOD AND COMPOUND FOR OPENING POTASSIUM CHANNELS OF MAMMAL VASCULAR SMOOTH MUSCLES IN A REMOTE CONTROL MANNER” (Tovaristvo Z Obmezhenou Vidpovidalnistu "Nanomedtrast", priority 2015, published 2017)
Read-outs that look alike come from different tables or passages of the source.

Test system: outgoing potassium current (IK) in rat thoracic aorta SM cells
Test: Whole-cell outgoing K+ current (IK) recording in isolated thoracic aorta smooth muscle cells
Type: cell-based
Method: C, D show effects of potassium channel blockers (paxillin, 500 nM, and […] 10 mm) on the outgoing potassium current in smooth muscle cells of thoracic aorta not exposed to Au NPs (C) and exposed to Au NPs (D). Currents caused by single step excitations with an amplitude of 10 mV and 300 ms increments within −100 and +70 mV of outgoing potential at −60 mV.
Currents in each cell (except for leakage current) were converted into specific […], averaged and depicted versus membrane potential (mV). The data thus obtained were brought in consistency using the standard Boltzmann function with average parameters described herein. The resulting current-voltage characteristics (curves I-V) were obtained by measuring current at the end of an impulse. The data represent mean values of ±SEM (n=8).
For the purposes of the study, smooth muscle cells isolated from rat thoracic aorta using collagenase and pronase were taken. Rats were anesthetised with ketamine (37.5 mg/kg body weight, intraperitoneally) and xylazine (10 mg/kg body weight, intraperitoneally), and thoracic aorta about 1.0 . . . 1.5 cm long was removed and denuded to make it free from connective tissue. Aorta was cut into small pieces (1.5×1.5 mm) in the cooled low Ca^2+ ion content solution comprising (in mM): NaCl 140, KCl 6, MgCl2 3, D-glucose 10, HEPES 10 (pH 7.4) for 15 minutes. Vascular tissues were placed in fresh low Ca^2+ ion content solution comprising collagenase type IA 2 mg/mL (417 U/mg), pronase type E XXV 0.5 mg/ml, and bovine albumin serum 2 mg/ml. Then tissues were incubated for 30 minutes at a temperature of +37 ° C. After incubation, tissues were washed (for 2-3 minutes) twice in fresh low Ca^2+ ion content solution to remove enzymes. Cells were dispersed by stirring using a glass pipette and then placed in modified Krebs bicarbonate buffer. A certain number of muscle cells was maintained at a temperature of […] and remained functional for at least 4 hours. […]

Row | Compound | effect on Au NPs-induced IK increment (SM cells exposed to Au NPs) | effect on Au NPs-induced IK increment | outgoing current
1 | CC(C)(O)[C@H]1O[C@H]2CC[C@@]3(C)[C@@](O)(CC[C@H]4Cc5c([nH]c6ccccc56)[C@@]43C)C2=CC1=O [Paxillin, paxillin] | stopped Au NPs-induced IK increment |  | 
2 | CC[N+](CC)(CC)CC [tetraethylammonium] |  | stopped Au NPs-induced IK increment | 3±1 pA/pF
